Square brackets hold non-standard residues; d marks the D form. Peptide text beside a SMILES is read from it. * marks the point of attachment. Acryloyl(3-(3-pyridyl),E) = O=C(/C=C/c1cccnc1)*; NMeF = CN[C@@H](Cc1ccccc1)C(=O)O; NMeD = CN[C@@H](CC(=O)O)C(=O)O; Boc = CC(C)(C)OC(=O)*
Target: Gastrin/cholecystokinin type B receptor (Cavia porcellus)
Assay: In vitro binding for half maximal inhibition of [125I]- cholecystokinin type B receptor in guinea pig cortex

CN(C(=O)[C@H](CCCCNC(=O)/C=C/c1cccnc1)NC(=O)[C@H](Cc1c[nH]c2ccccc12)NC(=O)OC(C)(C)C)[C@@H](CC(=O)O)C(=O)N(C)[C@@H](Cc1ccccc1)C(N)=O [(S)-3-{[(S)-2-[2-tert-Butoxycarbonylamino-3-(1H-indol-3-yl)-propionylamino]-6-((E)-3-pyridin-3-yl-acryloylamino)-hexanoyl]-methyl-amino}-N-((S)-1-carbamoyl-2-phenyl-ethyl)-N-methyl-succinamic acid] (Boc-WK(Acryloyl(3-(3-pyridyl),E))[NMeD][NMeF]-NH2)
IC50: 22.7 µM
